Like-named read-outs stand apart in the source and are kept apart here.
What was measured:
RET(V804M) = target: T1, RET(V804M) (Homo sapiens, UniProt P07949, V804M); test: Kinase panel inhibition, radiolabeled [γ-33P] ATP (Reaction Biology Corp); assay type: biochemical; conditions: for remaining activity at 0.1 µM: compound at 0.1 uM; for remaining activity at 0.1 µM / remaining activity at 1 µM: ATP 10 µM, read-out: % Enzyme Activity (relative to DMSO controls) V804M; for remaining activity at 1 µM: compound at 1 uM
T1 construct: purchased Reaction Biology Corp

RET(V804M)-KIF5B = target: T2, RET(V804M)-KIF5B (Homo sapiens, UniProt P07949, V804M); test: as above; assay type: biochemical; conditions: for remaining activity at 0.1 µM: compound at 0.1 uM, ATP 10 µM, read-out: % Enzyme Activity (relative to DMSO controls) RET (V804M )-KIF5B
T2 sequence (P07949 713-1114 V804M): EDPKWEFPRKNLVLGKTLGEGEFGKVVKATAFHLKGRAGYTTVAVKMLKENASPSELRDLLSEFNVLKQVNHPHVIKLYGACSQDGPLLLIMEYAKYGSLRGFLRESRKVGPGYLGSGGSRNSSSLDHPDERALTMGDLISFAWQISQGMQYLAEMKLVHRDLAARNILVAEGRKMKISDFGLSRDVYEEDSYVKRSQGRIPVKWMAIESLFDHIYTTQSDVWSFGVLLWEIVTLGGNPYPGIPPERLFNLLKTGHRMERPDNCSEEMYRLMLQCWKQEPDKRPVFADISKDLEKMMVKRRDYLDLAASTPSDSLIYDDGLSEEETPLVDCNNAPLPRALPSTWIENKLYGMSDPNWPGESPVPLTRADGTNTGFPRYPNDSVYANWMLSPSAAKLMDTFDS
T2 sequence (P33176 2-575 partner): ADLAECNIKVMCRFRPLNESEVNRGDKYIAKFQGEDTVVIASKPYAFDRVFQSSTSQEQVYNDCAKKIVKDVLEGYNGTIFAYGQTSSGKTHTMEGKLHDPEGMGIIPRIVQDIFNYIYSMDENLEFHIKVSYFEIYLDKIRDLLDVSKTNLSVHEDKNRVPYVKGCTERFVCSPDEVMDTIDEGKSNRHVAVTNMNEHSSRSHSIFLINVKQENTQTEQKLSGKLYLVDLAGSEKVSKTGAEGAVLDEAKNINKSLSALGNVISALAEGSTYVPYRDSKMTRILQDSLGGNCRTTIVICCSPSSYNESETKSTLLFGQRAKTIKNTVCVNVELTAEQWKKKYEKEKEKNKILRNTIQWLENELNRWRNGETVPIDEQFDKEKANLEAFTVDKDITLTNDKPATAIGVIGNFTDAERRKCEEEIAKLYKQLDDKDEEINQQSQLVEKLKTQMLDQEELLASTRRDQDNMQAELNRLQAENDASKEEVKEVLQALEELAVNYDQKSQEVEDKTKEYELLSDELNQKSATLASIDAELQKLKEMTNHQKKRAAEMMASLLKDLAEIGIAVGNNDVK

A-549 = test: Cell proliferation inhibition, Cell Counting Kit-8, non-small cell lung cancer cell line; assay type: cell-based; conditions: A-549 cell line; 72 hours incubation; test concentration not given
RET(G810R) = target: T3, RET(G810R) (Homo sapiens, UniProt P07949, G810R); test: Kinase panel inhibition, radiolabeled [γ-33P] ATP (Reaction Biology Corp); assay type: biochemical; conditions: for remaining activity at 0.1 µM: compound at 0.1 uM; for remaining activity at 0.1 µM / remaining activity at 1 µM: ATP 10 µM, read-out: % Enzyme Activity (relative to DMSO controls) G810R; for remaining activity at 1 µM: compound at 1 uM
T3 construct: purchased Reaction Biology Corp

RET (G810S/M918T) = target: T4, RET (G810S/M918T) (Homo sapiens, UniProt P07949, G810S/M918T); test: as above; assay type: biochemical; conditions: ATP 1 µM; for remaining activity at 10 µM: compound at 10 uM; for remaining activity at 30 µM: compound at 30uM
T4 construct: purchased Reaction Biology Corp

RET-CCDC6 (PTC1) = target: T5, RET-CCDC6 (PTC1) (Homo sapiens, UniProt P07949); test: as above; assay type: biochemical; conditions: compound at 10 uM, ATP 1 µM
T5 construct: purchased Reaction Biology Corp

BaF3 KIF5B-RET (G810R) = test: Cell proliferation inhibition, Cell Counting Kit-8, Ba/F3 cell line; assay type: cell-based, rodent; conditions: Mus musculus, 72 hours incubation, read-out: Cell Viability of BaF3 Cell lines (IC50 in uM) KIF5B-RET (G810R)
RET = target: T6, RET (Homo sapiens, UniProt P07949); test: Kinase panel inhibition, radiolabeled [γ-33P] ATP (Reaction Biology Corp); assay type: biochemical; conditions: compound at 1 uM; ATP 10 µM; read-out: % Enzyme Activity (relative to DMSO controls) RET
T6 construct: purchased Reaction Biology Corp

BaF3-RET(V804M) = test: Cell proliferation inhibition (GI50), Cell Counting Kit-8, Ba/F3 cell line; assay type: cell-based, rodent; conditions: Mus musculus, read-out: GI50 of BaF3-RET(V804M)
Description: To evaluate the inhibitory activity of the compounds represented by Formula I or Formula IV according to the present invention against RET mutation-driven cell growth in the Ba/F3 cell line and against cell growth in the non-small cell lung cancer cell line A-549, the following experiment was performed.
Each cell line was seeded in a 96-well plate at 1×10^4 cells/90 µL/well, and 10 µL/well of culture medium containing each example and intermediate compound or DMSO control at 9 concentrations (1 nM to 100 µM) prepared by 3-fold serial dilutions was added to achieve a final concentration of 0 to 100 µM, followed by incubation for 72 hours in a 37°C, 5% CO2 incubator. After 72 hours of incubation, the compound-treated plates were removed, and Cell Counting Kit-8 solution was added at 10 µL/well and mixed well. The plates were then incubated for 2 hours in a CO2 incubator at 37°C, and the absorbance was measured at 450 nm using a microplate reader.
In addition, the data were expressed as a percentage relative to vehicle-treated cells, and GI50 values were calculated using GraphPad Prism 8.0 (GraphPad Software Inc., San Diego), and the results are shown in Table 8 below. As a control compound, ponatinib, a known RET inhibitor, was treated to calculate the GI50 values.

[1] = Data 1, read-out: % Enzyme Activity (relative to DMSO controls) RET (G810S/M918T) Data 1
[2] = Data 2, read-out: % Enzyme Activity (relative to DMSO controls) RET (G810S/M918T) Data 2
[3] = Data 1, read-out: % Enzyme Activity (relative to DMSO controls) RET-CCDC6 (PTC1) Data 1
[4] = Data 2, read-out: % Enzyme Activity (relative to DMSO controls) RET-CCDC6 (PTC1) Data 2

T5 sequence (P07949 whole entry, looked up): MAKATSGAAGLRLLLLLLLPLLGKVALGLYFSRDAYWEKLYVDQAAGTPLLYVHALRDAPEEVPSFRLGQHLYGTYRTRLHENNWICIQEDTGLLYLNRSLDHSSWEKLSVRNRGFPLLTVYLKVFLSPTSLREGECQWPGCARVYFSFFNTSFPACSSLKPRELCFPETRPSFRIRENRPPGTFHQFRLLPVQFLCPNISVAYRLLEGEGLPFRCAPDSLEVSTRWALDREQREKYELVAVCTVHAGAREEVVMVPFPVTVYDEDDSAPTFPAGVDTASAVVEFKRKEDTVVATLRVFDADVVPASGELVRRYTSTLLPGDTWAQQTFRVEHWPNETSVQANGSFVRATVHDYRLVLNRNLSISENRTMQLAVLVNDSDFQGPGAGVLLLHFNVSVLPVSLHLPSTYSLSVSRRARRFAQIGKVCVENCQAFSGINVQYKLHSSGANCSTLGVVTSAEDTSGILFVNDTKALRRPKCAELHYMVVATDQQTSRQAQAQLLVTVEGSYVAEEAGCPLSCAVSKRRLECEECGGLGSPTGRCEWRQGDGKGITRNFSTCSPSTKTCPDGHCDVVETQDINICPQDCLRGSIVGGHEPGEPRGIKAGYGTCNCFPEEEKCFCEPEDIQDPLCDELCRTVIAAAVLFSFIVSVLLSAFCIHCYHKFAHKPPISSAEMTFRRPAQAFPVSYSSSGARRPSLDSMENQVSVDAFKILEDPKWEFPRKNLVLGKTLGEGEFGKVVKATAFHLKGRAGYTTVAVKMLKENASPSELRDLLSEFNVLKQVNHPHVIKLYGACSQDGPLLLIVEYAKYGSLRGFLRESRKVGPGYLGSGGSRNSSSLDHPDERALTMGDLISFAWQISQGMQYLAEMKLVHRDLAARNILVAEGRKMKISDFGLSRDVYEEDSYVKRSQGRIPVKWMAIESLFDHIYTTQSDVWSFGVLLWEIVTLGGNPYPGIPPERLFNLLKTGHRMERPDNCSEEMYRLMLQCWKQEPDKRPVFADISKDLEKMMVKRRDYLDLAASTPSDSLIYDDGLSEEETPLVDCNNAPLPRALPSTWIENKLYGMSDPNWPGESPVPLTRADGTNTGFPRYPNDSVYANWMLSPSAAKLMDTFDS
T6 sequence (P07949 29-1114): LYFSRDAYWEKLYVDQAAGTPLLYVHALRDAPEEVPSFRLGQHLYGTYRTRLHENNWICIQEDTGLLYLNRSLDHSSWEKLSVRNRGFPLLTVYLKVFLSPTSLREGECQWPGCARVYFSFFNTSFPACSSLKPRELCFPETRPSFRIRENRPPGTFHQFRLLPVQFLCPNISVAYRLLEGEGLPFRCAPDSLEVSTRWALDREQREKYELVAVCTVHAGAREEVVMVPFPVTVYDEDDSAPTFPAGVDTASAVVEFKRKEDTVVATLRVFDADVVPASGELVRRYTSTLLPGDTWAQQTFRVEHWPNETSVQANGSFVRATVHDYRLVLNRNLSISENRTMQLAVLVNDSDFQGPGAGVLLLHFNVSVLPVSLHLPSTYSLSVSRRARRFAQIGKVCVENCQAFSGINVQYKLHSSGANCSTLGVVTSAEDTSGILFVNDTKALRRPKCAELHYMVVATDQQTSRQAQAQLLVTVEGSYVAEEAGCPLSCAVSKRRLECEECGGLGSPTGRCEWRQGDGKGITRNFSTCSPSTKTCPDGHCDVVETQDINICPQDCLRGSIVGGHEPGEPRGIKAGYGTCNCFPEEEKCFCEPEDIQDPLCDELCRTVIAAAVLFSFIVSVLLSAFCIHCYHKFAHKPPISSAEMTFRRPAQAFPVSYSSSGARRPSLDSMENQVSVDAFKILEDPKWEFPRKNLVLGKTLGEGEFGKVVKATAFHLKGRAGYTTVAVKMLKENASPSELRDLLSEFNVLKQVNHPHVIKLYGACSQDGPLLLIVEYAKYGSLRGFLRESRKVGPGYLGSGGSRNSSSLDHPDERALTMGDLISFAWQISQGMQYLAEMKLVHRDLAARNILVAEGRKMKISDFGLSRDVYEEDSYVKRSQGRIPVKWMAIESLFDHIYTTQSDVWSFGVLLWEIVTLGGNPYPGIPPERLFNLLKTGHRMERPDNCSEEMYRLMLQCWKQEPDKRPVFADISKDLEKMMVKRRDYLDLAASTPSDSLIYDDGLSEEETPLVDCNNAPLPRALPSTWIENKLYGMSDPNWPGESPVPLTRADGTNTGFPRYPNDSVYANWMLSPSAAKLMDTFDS
T3 sequence (P07949 29-1114 G810R): as the sequence (P07949 29-1114) above, with G782R counted along it
T1 sequence (P07949 29-1114 V804M): as the sequence (P07949 29-1114) above, with V776M counted along it
T4 sequence (P07949 29-1114 G810S/M918T): as the sequence (P07949 29-1114) above, with G782S, M890T counted along it

| remaining activity at 0.1 µM (RET(V804M)) [%] | remaining activity at 0.1 µM (RET(V804M)-KIF5B) [%] | remaining activity at 0.1 µM (RET(G810R)) [%] | remaining activity at 10 µM (RET (G810S/M918T); [1]) [%] | remaining activity at 10 µM (RET (G810S/M918T); [2]) [%] | remaining activity at 10 µM (RET-CCDC6 (PTC1); [3]) [%] | remaining activity at 10 µM (RET-CCDC6 (PTC1); [4]) [%] | remaining activity at 1 µM (RET(V804M)) [%] | IC50 (BaF3 KIF5B-RET (G810R)) [µM] | remaining activity at 1 µM (RET(G810R)) [%] | remaining activity at 30 µM (RET (G810S/M918T); [1]) [%] | remaining activity at 30 µM (RET (G810S/M918T); [2]) [%] | remaining activity at 1 µM (RET) [%] | Compound | Cell Proliferation (% of control) (A-549) [%] | other results |
| --- | --- | --- | --- | --- | --- | --- | --- | --- | --- | --- | --- | --- | --- | --- | --- |
| 46 | 65.1 | 96.7 | 13.6 | 12.9 | 2.53 | 1.8 |  |  |  |  |  |  | O=C(Nc1cc(-c2ccc(N3CC(Oc4cccc(F)c4)C3)nc2)c2nccnc2c1)c1ccco1 [Example 8, N-(8-(6-(3-(3-fluorophenoxy)azetidin-1-yl)pyridin-3-yl)quinoxalin-6-yl)furan-2-carboxamide] | 78.35 |  |
|  |  |  |  |  |  |  | 16.5 | > 10 | 105 | 4.19 | 4.35 | 28.3 | CCN(CC)c1cc(-c2ccc(N3CC(Oc4cccc(F)c4)C3)nc2)c2nccnc2c1 [Example 28, N,N-diethyl-8-(6-(3-(3-fluorophenoxy)azetidin-1-yl)pyridin-3-yl)quinoxalin-6-amine] | 94.81 |  |
|  |  |  |  |  |  |  | 87.1 | > 10 | 97.6 | 74.7 | 73 | 93.7 | O=C(Nc1cc(Br)c2nccnc2c1)c1ccco1 [Intermediate Compound 11, N-(8-bromoquinoxalin-6-yl)furan-2-carboxamide] |  |  |
|  |  |  |  |  |  |  |  |  |  |  |  |  | Cc1ccc(C(=O)Nc2ccc(CN3CCN(C)CC3)c(C(F)(F)F)c2)cc1C#Cc1cnc2cccnn12 [Ponatinib, ponatinib, reference compound] | -1.99 | GI50 (BaF3-RET(V804M); BaF3, 72 h): 115 nM |
|  |  | 77.3 | 0.05 | -0.43 | 1.38 | 0.23 |  |  |  |  |  |  | CNc1cc(-c2ccc(N3CC(Oc4cccc(F)c4)C3)nc2)c2nccnc2c1 [Example 2, 8-(6-(3-(3-fluorophenoxy)azetidin-1-yl)pyridin-3-yl)-N-methylquinoxalin-6-amine] | 18.59 | GI50 (BaF3-RET(V804M); BaF3, 72 hours incubation, Cell Counting Kit-8): 943 nM |
|  |  |  |  |  |  |  | 68.3 | 0.73 | 104 | 10.3 | 9.57 | 71.1 | CCNc1cc(Br)c2nccnc2c1 [Intermediate Compound 18, 8-Bromo-N-ethylquinoxalin-6-amine] |  |  |
|  |  |  |  |  |  |  | 62.8 | > 10 | 101 | 59.9 | 58.1 | 67.2 | O=[N+]([O-])c1cc(-c2ccc(N3CC(Oc4cccc(F)c4)C3)nc2)c2nccnc2c1 [Example 27, 5-(6-(3-(3-fluorophenoxy)azetidin-1-yl)pyridin-3-yl)-7-nitroquinoxaline] | 94.57 |  |
| 88.7 | 85.9 | 96.6 | 41.9 | 40.6 | 5.39 | 4.58 |  |  |  |  |  |  | CCNc1cc(Nc2cc(C)[nH]n2)c2nccnc2c1 [Example 32, N7-ethyl-N5-(5-methyl-1H-pyrazol-3-yl)quinoxaline-5,7-diamine] | 92.91 |  |
|  |  |  |  |  |  |  |  | 1.41 |  |  |  |  | COc1ccc(CN2C3CC2CN(c2ccc(-c4cc(OCC(C)(C)O)cn5ncc(C#N)c45)cn2)C3)cn1 [Selpercatinib, selpercatinib, reference compound] |  |  |
|  |  |  |  |  |  |  | 59.3 | 4.44 | 97.9 | 18.2 | 17.2 | 57 | CCNc1cc(-c2ccc(F)nc2)c2nccnc2c1 [Intermediate Compound 6, N-ethyl-8-(6-fluoropyridin-3-yl)quinoxalin-6-amine] |  |  |
|  |  |  |  |  |  |  | 104 | > 10 | 102 | 92.6 | 89.7 | 95.7 | O=C(Nc1cc(-c2ccc(F)nc2)c2nccnc2c1)c1ccco1 [Intermediate Compound 13, N-(8-(6-fluoropyridin-3-yl)quinoxalin-6-yl)furan-2-carboxamide] |  |  |
| 105 | 109 | 98.5 | 61.7 | 61.2 | 14.8 | 15.4 |  |  |  |  |  |  | CCNc1cc(C#CCN2CCOCC2)c2nccnc2c1 [Example 31, N-ethyl-8-(3-morpholinoprop-1-yn-1-yl)quinoxalin-6-amine] | 51.88 |  |

| Compound | remaining activity at 0.1 µM (RET(V804M)) [%] | remaining activity at 0.1 µM (RET(V804M)-KIF5B) [%] | remaining activity at 0.1 µM (RET(G810R)) [%] | remaining activity at 10 µM (RET (G810S/M918T); [1]) [%] | remaining activity at 10 µM (RET (G810S/M918T); [2]) [%] | remaining activity at 10 µM (RET-CCDC6 (PTC1); [3]) [%] | remaining activity at 10 µM (RET-CCDC6 (PTC1); [4]) [%] | remaining activity at 1 µM (RET(V804M)) [%] | IC50 (BaF3 KIF5B-RET (G810R)) [µM] | remaining activity at 1 µM (RET(G810R)) [%] | remaining activity at 30 µM (RET (G810S/M918T); [1]) [%] | remaining activity at 30 µM (RET (G810S/M918T); [2]) [%] | remaining activity at 1 µM (RET) [%] | Cell Proliferation (% of control) (A-549) [%] | other results |
| --- | --- | --- | --- | --- | --- | --- | --- | --- | --- | --- | --- | --- | --- | --- | --- |
| Nc1cc(-c2ccc(N3CC[C@H](NC(=O)c4ccccc4F)C3)nc2)c2nccnc2c1 [Example 10, (S)-N-(1-(5-(7-aminoquinoxalin-5-yl)pyridin-2-yl)pyrrolidin-3-yl)-2-fluorobenzamide] | 2.27 | 5.5 | 59.9 | -0.09 | -0.6 | 1.55 | 0.99 |  |  |  |  |  |  | 32.59 | IC50 (RET(V804M); read-out: Enzymatic inhibitory activity (IC50) nM V804M): 0.5 nM; IC50 (RET(V804M)-KIF5B): 2.26 nM; IC50 (RET(G810R); read-out: Enzymatic inhibitory activity (IC50) nM G810R): 44.7 nM |

Source: patent EP4796538A1, “NOVEL QUINOXALINE COMPOUNDS, MANUFACTURING METHOD THEREOF, AND USES THEREOF” (Gachon University of Industry-Academic Cooperation …, priority 2023, dated 2025)
